Legend:
[1] = tested on: SH-SY5Y; test: Induction of apoptosis in human SH-SY5Y cells assessed as reduction in mitochondrial membrane potential at 2.5 uM after 24 hrs by JC-1 staining based flow cytometry (reference value: 5.1%); type: functional; parameters: scale not given: the % may be the effect or the level left
[2] = tested on: SH-SY5Y; test: Induction of apoptosis in human SH-SY5Y cells assessed as necrotic cells at 20 uM after 24 hrs by Annexin V-FITC/propidium iodide staining based flow cytometry (reference value: 2.9%); type: functional
[3] = Antiproliferative activity against human MGC803 cells assessed as cell growth inhibition after 72 hrs by MTT assay; type: functional, cell-based; details: MGC-803, 72 h
[4] = tested on: SH-SY5Y; test: Induction of apoptosis in human SH-SY5Y cells assessed as reduction in mitochondrial membrane potential at 5 uM after 24 hrs by JC-1 staining based flow cytometry (reference value: 5.1%); type: functional; parameters: scale not given: the % may be the effect or the level left
[5] = tested on: SH-SY5Y; test: Antiproliferative activity against human SH-SY5Y cells assessed as cell growth inhibition after 72 hrs by MTT assay; type: functional, cell-based
[6] = Antiproliferative activity against human EC109 cells assessed as cell growth inhibition after 72 hrs by MTT assay; type: functional, cell-based; details: ECa-109, 72 h
[7] = tested on: SH-SY5Y; test: Induction of apoptosis in human SH-SY5Y cells assessed as late apoptotic cells at 1.25 uM after 24 hrs by Annexin V-FITC/propidium iodide staining based flow cytometry (reference value: 5.7%); type: functional
[8] = tested on: SH-SY5Y; test: Induction of apoptosis in human SH-SY5Y cells assessed as viable cells at 2.5 uM after 24 hrs by Annexin V-FITC/propidium iodide staining based flow cytometry (reference value: 88.2%); type: functional; details: read-out: Activity
[9] = tested on: SH-SY5Y; test: Induction of apoptosis in human SH-SY5Y cells assessed as late apoptotic cells at 20 uM after 24 hrs by Annexin V-FITC/propidium iodide staining based flow cytometry (reference value: 5.7%); type: functional
[10] = tested on: SH-SY5Y; test: Induction of apoptosis in human SH-SY5Y cells assessed as late apoptotic cells at 10 uM after 24 hrs by Annexin V-FITC/propidium iodide staining based flow cytometry (reference value: 5.7%); type: functional
[11] = tested on: SH-SY5Y; test: Cell cycle arrest in human SH-SY5Y assessed as accumulation at S phase at 1.25 uM after 24 hrs by propidium iodide staining based flow cytometry (reference value: 21.34%); type: functional
[12] = tested on: SH-SY5Y; test: Cell cycle arrest in human SH-SY5Y assessed as accumulation at G0/G1 phase at 2.5 uM after 24 hrs by propidium iodide staining based flow cytometry (reference value: 61.80%); type: functional
[13] = tested on: SH-SY5Y; test: Cell cycle arrest in human SH-SY5Y assessed as accumulation at G2/M phase at 5 uM after 24 hrs by propidium iodide staining based flow cytometry (reference value: 14.53%); type: functional
[14] = tested on: SH-SY5Y; test: Induction of apoptosis in human SH-SY5Y cells assessed as necrotic cells at 1.25 uM after 24 hrs by Annexin V-FITC/propidium iodide staining based flow cytometry (reference value: 2.9%); type: functional
[15] = tested on: SH-SY5Y; test: Induction of apoptosis in human SH-SY5Y cells assessed as early apoptotic cells at 2.5 uM after 24 hrs by Annexin V-FITC/propidium iodide staining based flow cytometry (reference value: 3.3%); type: functional
[16] = tested on: SH-SY5Y; test: Induction of apoptosis in human SH-SY5Y cells assessed as reduction in mitochondrial membrane potential after 24 hrs by JC-1 staining based flow cytometry; type: functional, cell-based
[17] = tested on: SH-SY5Y; test: Induction of apoptosis in human SH-SY5Y cells assessed as reduction in mitochondrial membrane potential at 10 uM after 24 hrs by JC-1 staining based flow cytometry (reference value: 5.1%); type: functional; parameters: scale not given: the % may be the effect or the level left
[18] = tested on: SH-SY5Y; test: Induction of apoptosis in human SH-SY5Y cells assessed as early apoptotic cells at 10 uM after 24 hrs by Annexin V-FITC/propidium iodide staining based flow cytometry (reference value: 3.3%); type: functional
[19] = tested on: SH-SY5Y; test: Induction of apoptosis in human SH-SY5Y cells assessed as viable cells at 10 uM after 24 hrs by Annexin V-FITC/propidium iodide staining based flow cytometry (reference value: 88.2%); type: functional; details: read-out: Activity
[20] = tested on: SH-SY5Y; test: Cell cycle arrest in human SH-SY5Y assessed as accumulation at S phase at 5 uM after 24 hrs by propidium iodide staining based flow cytometry (reference value: 21.34%); type: functional
[21] = tested on: SH-SY5Y; test: Induction of apoptosis in human SH-SY5Y cells assessed as necrotic cells at 2.5 uM after 24 hrs by Annexin V-FITC/propidium iodide staining based flow cytometry (reference value: 2.9%); type: functional
[22] = tested on: SH-SY5Y; test: Cell cycle arrest in human SH-SY5Y assessed as accumulation at G0/G1 phase at 1.25 uM after 24 hrs by propidium iodide staining based flow cytometry (reference value: 61.80%); type: functional
[23] = tested on: SH-SY5Y; test: Induction of apoptosis in human SH-SY5Y cells assessed as viable cells at 1.25 uM after 24 hrs by Annexin V-FITC/propidium iodide staining based flow cytometry (reference value: 88.2%); type: functional; details: read-out: Activity
[24] = tested on: SH-SY5Y; test: Induction of apoptosis in human SH-SY5Y cells assessed as necrotic cells at 10 uM after 24 hrs by Annexin V-FITC/propidium iodide staining based flow cytometry (reference value: 2.9%); type: functional
[25] = tested on: SH-SY5Y; test: Induction of apoptosis in human SH-SY5Y cells after 24 hrs by Annexin V-FITC/propidium iodide staining based flow cytometry; type: functional, cell-based
[26] = tested on: SH-SY5Y; test: Induction of apoptosis in human SH-SY5Y cells assessed as viable cells at 20 uM after 24 hrs by Annexin V-FITC/propidium iodide staining based flow cytometry (reference value: 88.2%); type: functional; details: read-out: Activity
[27] = tested on: SH-SY5Y; test: Induction of apoptosis in human SH-SY5Y cells assessed as early apoptotic cells at 20 uM after 24 hrs by Annexin V-FITC/propidium iodide staining based flow cytometry (reference value: 3.3%); type: functional
[28] = tested on: SH-SY5Y; test: Cell cycle arrest in human SH-SY5Y assessed as accumulation at G2/M phase at 1.25 uM after 24 hrs by propidium iodide staining based flow cytometry (reference value: 14.53%); type: functional
[29] = tested on: SH-SY5Y; test: Cell cycle arrest in human SH-SY5Y assessed as accumulation at G2/M phase after 24 hrs by propidium iodide staining based flow cytometry; type: functional
[30] = tested on: SH-SY5Y; test: Cell cycle arrest in human SH-SY5Y assessed as accumulation at S phase at 2.5 uM after 24 hrs by propidium iodide staining based flow cytometry (reference value: 21.34%); type: functional
[31] = tested on: SH-SY5Y; test: Cell cycle arrest in human SH-SY5Y assessed as accumulation at G2/M phase at 2.5 uM after 24 hrs by propidium iodide staining based flow cytometry (reference value: 14.53%); type: functional
[32] = tested on: SH-SY5Y; test: Induction of apoptosis in human SH-SY5Y cells assessed as late apoptotic cells at 2.5 uM after 24 hrs by Annexin V-FITC/propidium iodide staining based flow cytometry (reference value: 5.7%); type: functional
[33] = tested on: SH-SY5Y; test: Induction of apoptosis in human SH-SY5Y cells assessed as late apoptotic cells at 5 uM after 24 hrs by Annexin V-FITC/propidium iodide staining based flow cytometry (reference value: 5.7%); type: functional
[34] = tested on: SH-SY5Y; test: Induction of apoptosis in human SH-SY5Y cells assessed as early apoptotic cells at 1.25 uM after 24 hrs by Annexin V-FITC/propidium iodide staining based flow cytometry (reference value: 3.3%); type: functional
[35] = tested on: SH-SY5Y; test: Cell cycle arrest in human SH-SY5Y assessed as accumulation at G0/G1 phase at 5 uM after 24 hrs by propidium iodide staining based flow cytometry (reference value: 61.80%); type: functional
[36] = tested on: SH-SY5Y; test: Induction of apoptosis in human SH-SY5Y cells assessed as viable cells at 5 uM after 24 hrs by Annexin V-FITC/propidium iodide staining based flow cytometry (reference value: 88.2%); type: functional; details: read-out: Activity
[37] = Antiproliferative activity against human U87 cells assessed as cell growth inhibition after 72 hrs by MTT assay; type: functional, cell-based, U-87MG ATCC; details: U-87 MG
[38] = tested on: SH-SY5Y; test: Induction of apoptosis in human SH-SY5Y cells assessed as necrotic cells at 5 uM after 24 hrs by Annexin V-FITC/propidium iodide staining based flow cytometry (reference value: 2.9%); type: functional
[39] = tested on: SH-SY5Y; test: Induction of apoptosis in human SH-SY5Y cells assessed as early apoptotic cells at 5 uM after 24 hrs by Annexin V-FITC/propidium iodide staining based flow cytometry (reference value: 3.3%); type: functional
[40] = tested on: MCF7; test: cells; details: Homo sapiens, MCF7, 72 h
Description: Antiproliferative activity against human MCF7 cells assessed as cell growth inhibition after 72 hrs by MTT assay

[41] = biological target: Lysine-specific histone demethylase 1A (Homo sapiens, UniProt O60341); test: Inhibition of recombinant LSD1 (157 to 852 amino acids) (unknown origin) expressed in Escherichia coli BL21(DE) using H3K4me2 substrate

C[C@]12CC[C@H](OC(=O)Cn3cc(CN4C(=O)C(=O)c5c(Cl)ccc(Cl)c54)nn3)CC1=CC[C@@H]1[C@@H]2CC[C@]2(C)C(=O)CC[C@@H]12
Activity [1]: 9% | Activity [2]: 0.8% | IC50 [3]: 5.95 µM | Activity [4]: 29.8% | IC50 [5]: 4.06 µM | IC50 [6]: 20.8 µM | Activity [7]: 8.4% | viability at 2.5 µM [8]: 81.4% | Activity [9]: 65.7% | Activity [10]: 59.7% | Activity [11]: 24.78% | Activity [12]: 45.36% | Activity [13]: 27.74% | Activity [14]: 5.3% | Activity [15]: 10.6% | Activity [16]: Dose-dependent effect | Activity [17]: 40.1% | Activity [18]: 39% | viability at 10 µM [19]: 0.8% | Activity [20]: 12.48% | Activity [21]: 1.6% | Activity [22]: 50.31% | viability at 1.25 µM [23]: 80.3% | Activity [24]: 0.5% | Activity [25]: Dose-dependent effect | viability at 20 µM [26]: 1% | Activity [27]: 32.6% | Activity [28]: 21.31% | Activity [29]: Dose-dependent effect | Activity [30]: 23.48% | Activity [31]: 23.88% | Activity [32]: 6.4% | Activity [33]: 41.4% | Activity [34]: 6.1% | Activity [35]: 52.33% | viability at 5 µM [36]: 32.4% | IC50 [37]: 9.57 µM | Activity [38]: 7.4% | Activity [39]: 18.9% | IC50 [40]: 32.2 µM | IC50 [41]: 3.18 µM

C[C@]12CC[C@H](OC(=O)Cn3cc(COc4ccc(C(=O)/C=C/c5ccc([N+](=O)[O-])cc5)cc4)nn3)CC1=CC[C@@H]1[C@@H]2CC[C@]2(C)C(=O)CC[C@@H]12
IC50 [3]: 99.5 µM | IC50 [5]: > 128 µM | IC50 [6]: > 128 µM | IC50 [37]: > 128 µM | IC50 [40]: > 128 µM

Cc1cc(=O)oc2cc(OCc3cn(CC(=O)O[C@H]4CC[C@@]5(C)C(=CC[C@@H]6[C@@H]5CC[C@]5(C)C(=O)CC[C@@H]65)C4)nn3)ccc12
IC50 [3]: > 128 µM | IC50 [5]: 49.5 µM | IC50 [6]: > 128 µM | IC50 [37]: 47.4 µM | IC50 [40]: > 128 µM

C[C@]12CC[C@H](OC(=O)Cn3cc(COc4ccc(/C=C/C(=O)c5ccc(F)cc5)cc4)nn3)CC1=CC[C@@H]1[C@@H]2CC[C@]2(C)C(=O)CC[C@@H]12
IC50 [3]: > 128 µM | IC50 [5]: 46.5 µM | IC50 [6]: > 128 µM | IC50 [37]: > 128 µM | IC50 [40]: 91.5 µM

C[C@]12CC[C@H](OC(=O)Cn3cc(COc4ccc(C(=O)/C=C/c5ccc(Cl)c(Cl)c5)cc4)nn3)CC1=CC[C@@H]1[C@@H]2CC[C@]2(C)C(=O)CC[C@@H]12
IC50 [3]: > 128 µM | IC50 [5]: 36.6 µM | IC50 [6]: > 128 µM | IC50 [37]: > 128 µM | IC50 [40]: > 128 µM

Cc1ccc(/C=C/C(=O)c2ccc(OCc3cn(CC(=O)O[C@H]4CC[C@@]5(C)C(=CC[C@@H]6[C@@H]5CC[C@]5(C)C(=O)CC[C@@H]65)C4)nn3)cc2)cc1
IC50 [3]: > 128 µM | IC50 [5]: 50.1 µM | IC50 [6]: > 128 µM | IC50 [37]: > 128 µM | IC50 [40]: 73.3 µM

From ChEMBL document CHEMBL3804830, “Efficient synthesis of new antiproliferative steroidal hybrids using the molecular hybridization approach” (Eur J Med Chem, 2016)
